Laboratory results reported in patent US10294202B2, “Pyrrolidinones as herbicides” (FMC Corporation, priority 2013, dated 2019).

Legend:
ragweed = assay: Test A pre-/postemergence herbicide test; format: in vivo, Ambrosia elatior; conditions: for Plant response rating, Ragweed: 0 to 100 scale
Excerpt: (§1) Seeds of plant species selected from bamyardgrass (Echinochloa crus-galli), kochia (Kochia scoparia), ragweed (common ragweed, Ambrosia elatior), ryegrass, Italian (Italian ryegrass, Lolium multiflorum), crabgrass, large (large crabgrass Digitaria sanguinalis), giant foxtail (Setaria faberii), morningglory (Ipomoea spp.), pigweed (Amaranthus retroflexus), velvetleaf (Abutilon theophrasti), wheat (Triticum aestivum), and corn (Zea mays) were planted into a blend of loam soil and sand and treated preemergence with a directed soil spray using test chemicals formulated in a non-phytotoxic solvent mixture which included a surfactant. At the same time, plants selected from these crop and weed species and also blackgrass (Alopecurus myosuroides), and galium (catchweed bedstraw, Galium aparine) were planted in pots containing the same blend of loam soil and sand and treated with postemergence applications of test chemicals formulated in the same manner. Plants ranged in height from 2 to 10 cm and were in the one- to two-leaf stage for the postemergence treatment. Treated plants and untreated controls were maintained in a greenhouse for approximately 10 days, after which time all treated plants were compared to untreated controls and visually evaluated for injury. Plant response ratings, summarized in Table A, are based on a 0 to 100 scale where 0 is no effect and 100 is complete control. A dash (-) response means no test result.

ryegrass, Italian = assay: Test A pre-/postemergence herbicide test; format: in vivo, Lolium multiflorum; conditions: for Plant response rating, Ryegrass, Italian: 0 to 100 scale
Excerpt: as §1

pigweed = assay: Test A pre-/postemergence herbicide test; format: in vivo, Amaranthus retroflexus; conditions: for Plant response rating, Pigweed: 0 to 100 scale
Outline: (§2)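 Planted in loam–sand blend; treated the same day preemergence by directed soil spray, while separately grown plants at one- to two-leaf stage got postemergence spray. Compared visually with untreated controls after approximately 10 days; 100 means complete control.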

wheat = assay: Test A pre-/postemergence herbicide test; format: in vivo, Triticum aestivum; conditions: Postemergence; for Plant response rating, Wheat: 125 g ai/ha, 0 to 100 scale; for Wheat plant response rating (0 to 100 scale, 0 is no effect, 100 is complete control): 500 g ai/ha
Outline: as §2

kochia = assay: Test A pre-/postemergence herbicide test; format: in vivo, Kochia scoparia; conditions: for Plant response rating, Kochia: 0 to 100 scale
Excerpt: as §1

galium = assay: Test A postemergence herbicide test; format: in vivo, Galium aparine; conditions: for Plant response rating, Galium: 125 g ai/ha, 0 to 100 scale; for Galium plant response rating (0 to 100 scale, 0 is no effect, 100 is complete control): 500 g ai/ha
Excerpt: (§3) At the same time, plants selected from these crop and weed species and also blackgrass (Alopecurus myosuroides), and galium (catchweed bedstraw, Galium aparine) were planted in pots containing the same blend of loam soil and sand and treated with postemergence applications of test chemicals formulated in the same manner. Plants ranged in height from 2 to 10 cm and were in the one- to two-leaf stage for the postemergence treatment. Treated plants and untreated controls were maintained in a greenhouse for approximately 10 days, after which time all treated plants were compared to untreated controls and visually evaluated for injury. Plant response ratings, summarized in Table A, are based on a 0 to 100 scale where 0 is no effect and 100 is complete control. A dash (-) response means no test result.

corn = assay: Test A pre-/postemergence herbicide test; format: in vivo, Zea mays; conditions: Postemergence; for Plant response rating, Corn: 125 g ai/ha, 0 to 100 scale; for Corn plant response rating (0 to 100 scale, 0 is no effect, 100 is complete control): 500 g ai/ha
Outline: as §2

barnyardgrass = assay: Test A pre-/postemergence herbicide test; format: in vivo, Echinochloa crus-galli
Outline: as §2

giant foxtail = assay: Test A pre-/postemergence herbicide test; format: in vivo, Setaria faberii; conditions: for Plant response rating, Foxtail, Giant: 0 to 100 scale
Outline: as §2

blackgrass = assay: Test A postemergence herbicide test; format: in vivo, Alopecurus myosuroides; conditions: for Plant response rating, Blackgrass: 125 g ai/ha, 0 to 100 scale; for Blackgrass plant response rating (0 to 100 scale, 0 is no effect, 100 is complete control): 500 g ai/ha
Excerpt: as §3

[1] = 125 g ai/ha, visual rating, 0 no effect, 100 complete control, approximately 10 days, preemergence
[2] = Postemergence, 125 g ai/ha, 0 no effect, 100 complete control
[3] = 0 no effect, 100 complete control
[4] = 125 g ai/ha, visual rating, 0 to 100 scale, 0 no effect, 100 complete control, approximately 10 days, preemergence
[5] = preemergence, 500 g ai/ha, 0 to 100 scale (0 no effect, 100 complete control)
[6] = Postemergence, 125 g ai/ha, 0 is no effect, 100 is complete control
[7] = preemergence, 500 g ai/ha, 0 is no effect and 100 is complete control
[8] = 0 is no effect, 100 is complete control

Structure (SMILES)	Plant response rating, Ragweed (ragweed; [1])	Ragweed plant response rating (0 to 100 scale, 0 is no effect, 100 is complete control) (ragweed; Postemergence, 500 g ai/ha)	Plant response rating, Ryegrass, Italian (ryegrass, Italian; [1])	Ryegrass, Italian plant response rating (0 to 100 scale, 0 is no effect, 100 is complete control) (ryegrass, Italian; Postemergence, 500 g ai/ha)	Plant response rating, Pigweed (pigweed; [1])	Pigweed plant response rating (0 to 100 scale, 0 is no effect, 100 is complete control) (pigweed; Postemergence, 500 g ai/ha)	Wheat plant response rating (0 to 100 scale, 0 is no effect, 100 is complete control) (wheat)	Plant response rating, Kochia (kochia; [1])	Kochia plant response rating (0 to 100 scale, 0 is no effect, 100 is complete control) (kochia; Postemergence, 500 g ai/ha)	Galium plant response rating (0 to 100 scale, 0 is no effect, 100 is complete control) (galium)	Corn plant response rating (0 to 100 scale, 0 is no effect, 100 is complete control) (corn)	Plant response rating, Barnyardgrass (barnyardgrass; [4])	Barnyardgrass plant response rating (0 to 100 scale, 0 is no effect, 100 is complete control) (barnyardgrass; Postemergence, 500 g ai/ha)	Plant response rating, Barnyardgrass (barnyardgrass; [5])	Plant response rating, Foxtail, Giant (giant foxtail; [1])	Foxtail, Giant plant response rating (0 to 100 scale, 0 is no effect, 100 is complete control) (giant foxtail; Postemergence, 500 g ai/ha)	Plant response rating, Foxtail, Giant (giant foxtail; preemergence, 500 g ai/ha)	Blackgrass plant response rating (0 to 100 scale, 0 is no effect, 100 is complete control) (blackgrass)	other results
Cc1ccc(C2CNC(=O)C2C(=O)Nc2ccc(F)cc2F)cc1F (racemic) [Compound 145]	0	20	0	0	0	0	0	0	20	50	0	80	90	90	70	70	90	30	Plant response rating, Ragweed (ragweed; [2]): 0; Plant response rating, Ragweed (ragweed; preemergence, 500 g ai/ha): 0; Plant response rating, Ryegrass, Italian (ryegrass, Italian; [2]): 0; Plant response rating, Ryegrass, Italian (ryegrass, Italian; preemergence, 500 g ai/ha): 0; Plant response rating, Pigweed (pigweed; [2]): 0; Plant response rating, Pigweed (pigweed; preemergence, 500 g ai/ha): 0; Plant response rating, Wheat (wheat; [3]): 0; Plant response rating, Kochia (kochia; [2]): 0; Plant response rating, Kochia (kochia; preemergence, 500 g ai/ha): 0; Plant response rating, Galium (galium; [3]): 20; Plant response rating, Corn (corn; [3]): 0; Plant response rating, Barnyardgrass (barnyardgrass; Postemergence, 125 g ai/ha, 0 to 100 scale, 0 no effect, 100 complete control): 70; Plant response rating, Foxtail, Giant (giant foxtail; [2]): 40; Plant response rating, Blackgrass (blackgrass; [3]): 0
O=C1NCC(c2cc(F)cc(F)c2)C1C(=O)Nc1ccc(F)cc1F (racemic) [Compound 156]	0	30	0	30	0	20	40	20	20	30	30	90	80	90	90	80	90	20	Plant response rating, Ragweed (ragweed; [6]): 0; Plant response rating, Ragweed (ragweed; [7]): 0; Plant response rating, Ryegrass, Italian (ryegrass, Italian; [6]): 20; Plant response rating, Ryegrass, Italian (ryegrass, Italian; [7]): 30; Plant response rating, Pigweed (pigweed; [6]): 0; Plant response rating, Pigweed (pigweed; [7]): 0; Plant response rating, Wheat (wheat; [8]): 0; Plant response rating, Kochia (kochia; [6]): 0; Plant response rating, Kochia (kochia; [7]): 40; Plant response rating, Galium (galium; [8]): 20; Plant response rating, Corn (corn; [8]): 20; Plant response rating, Barnyardgrass (barnyardgrass; Postemergence, 125 g ai/ha, 0 to 100 scale, 0 is no effect, 100 is complete control): 80; Plant response rating, Foxtail, Giant (giant foxtail; [6]): 80; Plant response rating, Blackgrass (blackgrass; [8]): 0
